Measurements reported in patent US20070117743A1, “New antitumoral compounds” (priority 2003, published 2007).
Like-named read-outs stand apart in the source and are kept apart here. Where a SMILES comes first, the peptide text is derived from it. Bridges are numbered along the chain shown (N, C = ends). [ ]: non-standard residue; d: D form. The star is where a group is joined. d(aIle) = CC[C@H](C)[C@@H](N)C(=O)O; d(aThr) = C[C@@H](O)[C@@H](N)C(=O)O; Hexanoyl(5-Me) = CC(C)CCCC(=O)*; Orn = NCCC[C@H](N)C(=O)O; Dhb = C/C=C(\N)C(=O)O

How the values were obtained:
Type in all cases: cell-based, human
[1] = system: SK-MEL-28; assay: SRB colorimetric assay of cell growth and viability, SK-MEL-28; conditions: 48 hours exposure; for CC50: read-out: LC50 MEL-28
[2] = system: HT-29; assay: SRB colorimetric assay of cell growth and viability, HT-29; conditions: 48 hours exposure; for GI50: read-out: GI50 HT-29; for CC50: read-out: LC50 HT-29
[3] = system: IGROV-1; assay: SRB colorimetric assay of cell growth and viability, IGROV-1; conditions: 48 hours exposure
[4] = system: HeLa-APL; assay: SRB colorimetric assay of cell growth and viability, HeLa-APL; conditions: 48 hours exposure; for CC50: read-out: LC50 HELA-APL
[5] = system: PANC-1; assay: SRB colorimetric assay of cell growth and viability, PANC-1; conditions: 48 hours exposure; for CC50: read-out: LC50 PANC-1
[6] = system: A-549; assay: SRB colorimetric assay of cell growth and viability, A-549; conditions: 48 hours exposure; for GI50: read-out: GI50 A-549; for CC50: read-out: LC50 A-549
[7] = system: HeLa; assay: SRB colorimetric assay of cell growth and viability, HeLa; conditions: 48 hours exposure; for CC50: read-out: LC50 HELA
[8] = system: DU-145; assay: SRB colorimetric assay of cell growth and viability, DU-145; conditions: 48 hours exposure
[9] = system: LoVo-Dox; assay: SRB colorimetric assay of cell growth and viability, LoVo-Dox; conditions: 48 hours exposure; for CC50: read-out: LC50 LOVO-DOX
How it was run: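 Here, cells grow drug-free for 18 h, then receive sample dilutions from 10 down to 10^−8 μg/mL for 48 h at 37° C. Protein-bound SRB is solubilized in Tris and quantified at 490 nm.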

[10] = system: IGROV-ET; assay: SRB colorimetric assay of cell growth and viability, IGROV-ET; conditions: 48 hours exposure; for CC50: read-out: LC50 IGROV-ET
[11] = system: LoVo; assay: SRB colorimetric assay of cell growth and viability, LoVo; conditions: 48 hours exposure, SRB
[12] = system: LNCaP; assay: SRB colorimetric assay of cell growth and viability, LNCaP; conditions: 48 hours exposure; for CC50: read-out: LC50 LN-caP
[13] = system: SK-BR-3; assay: SRB colorimetric assay of cell growth and viability, SK-BR-3; conditions: 48 hours exposure
[14] = system: K-562; assay: SRB colorimetric assay of cell growth and viability, K-562; conditions: K-562, 48 hours exposure

C/C=C1\NC(=O)[C@H](Cc2ccc(I)cc2)NC(=O)[C@@H](C(C)C)NC(=O)[C@@H]([C@@H](C)CC)NC(=O)[C@H](NC(=O)[C@H](NC(=O)[C@H](CCCN)NC(=O)[C@H]2CCCN2C(=O)[C@H](NC(=O)[C@@H](NC(=O)[C@@H](NC(=O)[C@H](NC(=O)CC[C@@H](C)CC)C(C)C)[C@@H](C)O)C(C)C)C(C)C)[C@@H](C)CC)[C@@H](C)OC(=O)[C@H](C(C)C)NC1=O [Compound 72, [Phe(4-I)^3, (4S)-MeHex^14]-KF]
GI50 ([1]; SRB): 190 nM
TGI MEL-28 ([1]; SRB): 4.05E−07 Molar
CC50 ([1]; SRB): 1200 nM
TGI HT-29 ([2]; SRB): 2.30E−07 Molar
GI50 ([2]; SRB): 120 nM
CC50 ([2]; SRB): 441 nM
GI50 ([3]; SRB): 170 nM
LC50 (concentration causing 50% net cell killing) ([3]; SRB): 443 nM
TGI IGROV ([3]; SRB): 2.74E−07 Molar
GI50 ([4]; SRB): 287 nM
TGI HELA-APL ([4]; SRB): 7.73E−07 Molar
CC50 ([4]; SRB): 2280 nM
GI50 ([5]; SRB): 885 nM
TGI PANC-1 ([5]; SRB): 1.68E−06 Molar
CC50 ([5]; SRB): 3200 nM
TGI A-549 ([6]; SRB): 3.47E−07 Molar
GI50 ([6]; SRB): 214 nM
CC50 ([6]; SRB): 559 nM
GI50 ([7]; SRB): 133 nM
TGI HELA ([7]; SRB): 2.24E−07 Molar
CC50 ([7]; SRB): 379 nM
GI50 ([8]; SRB): 132 nM
LC50 (concentration causing 50% net cell kill) ([8]; SRB): 425 nM
TGI DU-145 ([8]; SRB): 2.37E−07 Molar
GI50 ([9]; SRB): 49.8 nM
TGI LOVO-DOX ([9]; SRB): 1.23E−07 Molar
CC50 ([9]; SRB): 274 nM
GI50 ([10]; SRB): 259 nM
TGI IGROV-ET ([10]; SRB): 3.84E−07 Molar
CC50 ([10]; SRB): 570 nM
GI50 [11]: 129 nM
TGI LOVO [11]: 2.35E−07 Molar
CC50 ([11]; read-out: LC50 LOVO): 428 nM
TGI LN-caP ([12]; SRB): 8.42E−07 Molar
GI50 ([12]; SRB, read-out: GI50 LN-caP): 270 nM
CC50 ([12]; SRB): 2380 nM
GI50 ([13]; SRB): 125 nM
LC50 ([13]; SRB): 416 nM
TGI SK-BR-3 ([13]; SRB): 2.28E−07 Molar

C/C=C1\NC(=O)[C@H](Cc2ccccc2)NC(=O)[C@@H](C(C)C)NC(=O)[C@@H]([C@@H](C)CC)NC(=O)[C@H](NC(=O)[C@H](NC(=O)[C@H](CCCN)NC(=O)[C@H]2CCCN2C(=O)[C@H](NC(=O)[C@@H](NC(=O)[C@@H]2CCCN2C(=O)[C@H](NC(=O)CCCC(C)C)C(C)C)C(C)C)C(C)C)[C@@H](C)CC)[C@@H](C)OC(=O)[C@H](C(C)C)NC1=O [Compound 117, [Pro^12]-KF] ({Hexanoyl(5-Me)}-[dV]PV[dV][dP][Orn][d(aIle)][d(aThr)][d(aIle)][dV]F[Dhb]V; ester 8-C)
GI50 ([1]; MEL-28): 2000 nM
TGI MEL-28 ([1]; MEL-28): 4.26E−06 Molar
CC50 ([1]; MEL-28): 6780 nM
TGI HT-29 ([2]; HT-29): 3.38E−06 Molar
GI50 ([2]; HT-29): 17.6 nM
CC50 ([2]; HT-29): ≥ 6490 nM
GI50 [14]: 841 nM
TGI K-562 [14]: 2.10E−06 Molar
CC50 ([14]; read-out: LC50 K-562): 5220 nM
GI50 ([3]; IGROV): 1970 nM
LC50 (concentration causing 50% net cell killing) ([3]; IGROV): 6780 nM
TGI IGROV ([3]; IGROV): 3.70E−06 Molar
GI50 ([4]; HELA-APL): 1840 nM
TGI HELA-APL ([4]; HELA-APL): 3.98E−06 Molar
CC50 ([4]; HELA-APL): 6780 nM
GI50 ([5]; PANC-1): 3880 nM
TGI PANC-1 ([5]; PANC-1): 6.78E−06 Molar
CC50 ([5]; PANC-1): 6780 nM
TGI A-549 ([6]; A-549): 6.78E−06 Molar
GI50 ([6]; A-549): 3290 nM
CC50 ([6]; A-549): 6780 nM
GI50 ([7]; HELA): 1530 nM
TGI HELA ([7]; HELA): 2.89E−06 Molar
CC50 ([7]; HELA): 5460 nM
GI50 ([8]; DU-145): 2410 nM
LC50 (concentration causing 50% net cell kill) ([8]; DU-145): 6780 nM
TGI DU-145 ([8]; DU-145): 5.43E−06 Molar
GI50 ([9]; LOVO-DOX): 1830 nM
TGI LOVO-DOX ([9]; LOVO-DOX): 3.59E−06 Molar
CC50 ([9]; LOVO-DOX): 6780 nM
GI50 ([10]; IGROV-ET): 1820 nM
TGI IGROV-ET ([10]; IGROV-ET): 3.11E−06 Molar
CC50 ([10]; IGROV-ET): 5340 nM
GI50 ([12]; LN-caP): 1510 nM
TGI LN-caP ([12]; LN-caP): 2.87E−06 Molar
CC50 ([12]; LN-caP): 5450 nM
GI50 ([13]; SK-BR-3): 1550 nM
LC50 ([13]; SK-BR-3): 5620 nM
TGI SK-BR-3 ([13]; SK-BR-3): 2.96E−06 Molar
